# Article PMC4939481 (Bioorganic & medicinal chemistry letters, 2016)
# pIC50: −log10 of the molar value.
# Legend:
# [1] = biological target: T1, recombinant human TDP2 (hTDP2) (Homo sapiens, UniProt O95551); test: Inhibition of recombinant human TDP2; type: biochemical, H. sapiens
# T1 sequence (O95551 1-362): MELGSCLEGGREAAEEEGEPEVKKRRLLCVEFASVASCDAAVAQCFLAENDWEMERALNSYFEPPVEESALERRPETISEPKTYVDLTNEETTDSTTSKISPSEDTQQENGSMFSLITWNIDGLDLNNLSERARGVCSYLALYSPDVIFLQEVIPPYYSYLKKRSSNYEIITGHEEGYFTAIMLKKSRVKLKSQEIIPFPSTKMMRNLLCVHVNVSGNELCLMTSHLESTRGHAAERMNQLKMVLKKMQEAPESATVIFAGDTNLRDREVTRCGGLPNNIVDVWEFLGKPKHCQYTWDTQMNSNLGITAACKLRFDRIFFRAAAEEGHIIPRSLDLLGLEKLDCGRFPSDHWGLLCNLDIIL
# [2] = biological target: recombinant human TDP1 (hTDP1) (Homo sapiens, UniProt Q9NUW8); test: Inhibition of recombinant human TDP1; type: biochemical, H. sapiens
# Sequence of recombinant human TDP1 (hTDP1) (Q9NUW8 whole entry): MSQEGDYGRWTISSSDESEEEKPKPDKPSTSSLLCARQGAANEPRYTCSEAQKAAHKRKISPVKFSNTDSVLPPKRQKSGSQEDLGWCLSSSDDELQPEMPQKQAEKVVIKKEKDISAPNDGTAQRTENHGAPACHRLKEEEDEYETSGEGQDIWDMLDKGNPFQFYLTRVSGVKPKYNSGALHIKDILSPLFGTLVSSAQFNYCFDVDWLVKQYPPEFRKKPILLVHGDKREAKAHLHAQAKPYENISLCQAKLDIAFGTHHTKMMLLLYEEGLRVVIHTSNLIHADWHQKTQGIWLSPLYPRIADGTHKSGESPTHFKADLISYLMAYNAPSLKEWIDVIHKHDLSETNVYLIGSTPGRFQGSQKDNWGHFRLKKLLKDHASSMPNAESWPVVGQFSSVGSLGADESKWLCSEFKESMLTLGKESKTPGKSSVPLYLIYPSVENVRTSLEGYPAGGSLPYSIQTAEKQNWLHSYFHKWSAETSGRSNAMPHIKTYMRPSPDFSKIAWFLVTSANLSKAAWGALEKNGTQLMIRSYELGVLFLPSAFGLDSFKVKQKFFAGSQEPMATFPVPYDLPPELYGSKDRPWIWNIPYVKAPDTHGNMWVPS
pIC50 [2],SMILES,pIC50 [1]
< 3.70,COc1ccc(CC2C(=O)N(c3ccc([N+](=O)[O-])cc3)N=C2C(=O)O)cc1Oc1ccc(F)cc1 (stereo not drawn) [Compound 21],4.70
–,O=C(Cc1ccccc1)NC(CSSCC(NC(=O)Cc1ccccc1)C(=O)O)C(=O)O (stereo not drawn) [NSC3198],5.02
